Results taken from US20130029964A1, “[5, 6] HETEROCYCLIC COMPOUND” (DAIICHI SANKYO COMPANY, LIMITED, priority 2010, published 2013).
Structures can show the parent of a compound that is named as a salt.

System: ST2 cells, murine bone marrow-derived stromal cells
Assay: Osteoblast differentiation test (ALP activity)
Type: cell-based
Conditions: Mus musculus, ST-2, 96 h, at 0.1 μg/mL, control group (0.1% DMSO) = 100%, four days of culturing, read-out: alkaline phosphatase activity
Procedure: ST2 cells, murine bone marrow-derived stromal cells, (obtained from RIKEN) were used.
In this test, α-MEM media (obtained from GIBCO BRL Cat. No. 10370-021) containing 10% (v/v) of inactivated calf serum (obtained from Hyclone Laboratories, Inc.) and 1% (v/v) of Penicillin-Streptomycin Liquid (obtained from GIBCO BRL Cat. No. 15140-122) (hereinbelow, abbreviated as 10%-FBS-αMEM) were used. In this test, all culturing was performed in a CO2 incubator (37° C., 95% humidity, 5% CO2).
The aforementioned cells were detached with 2 mL of a 0.25% trypsin solution (obtained from GIBCO BRL Cat. No. 15050-065) and dispersed in 10 mL of 10%-FBS-αMEM. Subsequently, the cells were collected by centrifugation (25° C., 800 rpm, five minutes). Then, a cell suspension containing 40000 of the cells/mL of 10%-FBS-αMEM was prepared. The cell suspension was then dispensed into 96-well plates (the product of Falcon), 100 μL per well, at a density of 4000 cells/well, followed by culturing for 24 hours. To the wells, except for the below-described well containing a control group, the compound was dispensed at final concentrations of 0.01, 0.03, 0.1, and 0.3 μg/ml. To the well of a control group, DMSO was dispensed at a final concentration of 0.1% (v/v). After four days of culturing, the activity of alkaline phosphatase (ALP) was measured in each group.
The measurement of ALP activity was performed as follows. That is, the medium in each well of the culture plates was completely removed. Each well was then washed by dispensing 100 μL of Dulbecco's phosphate buffer (obtained from GIBCO BRL Cat. No. 14190-144) and then removing it. A cell lysate solution containing 10 mM MgCl2 and 2% (v/v) TritonX-100 (Sigma) was prepared and dispensed at 50 μL/well, followed by stirring at room temperature for five minutes. An ALP substrate solution containing 50 mM diethanolamine (Wako Pure Chemical Industries, Ltd., Cat. No. 099-03112) and 20 mM p-nitrophenyl phosphate (Wako Pure Chemical Industries, Ltd., Cat. No. 147-02343) was prepared and dispensed at 50 μL/well, and the plates were left to stand at room temperature for 10 minutes. Subsequently, absorbance was measured by a microplate reader (Bio-Rad Laboratories, Inc.). Setting the measurement value of the control group of each plate at 100%, alkaline phosphatase activity (increase (%)) in the test compound-addition group was calculated, which was assessed as the degree of osteoblast differentiation.

Row | SMILES | activity at 0.1 µg/mL
1 | CC(=O)N1CC=C(c2ccn3c(-c4ccc(OCCOC5CCOCC5)cc4)cnc3c2)CC1 [Example 68] | ≥ 200%
2 | COCCNc1ccc(-n2cnc3ccccc32)cc1 [Example 6] | ≥ 200%
3 | COc1ccc2ncc(-c3ccc(OCCOC4CCOCC4)cc3)n2c1 [Example 20, 6-Methoxy-3-{4-[2-(tetrahydro-2H-pyran-4-yloxy)ethoxy]phenyl}imidazo[1,2-a]pyridine] | ≥ 200%
4 | OCCOc1ccc(-n2cnc3ccc(Cl)cc32)cc1 [Example 31] | ≥ 200%
5 | OCCOc1ccc(-n2cnc3cc(-c4ccncc4)ccc32)cc1 [Example 9, 2-[4-(5-Pyridin-4-yl-1H-benzimidazol-1-yl)phenoxy]ethanol] | ≥ 200%
6 | Fc1ccc2ncc(-c3ccc(OCCO[C@@H]4CCOC4)cc3)n2c1 [Example 110] | ≥ 200%
7 | OCCOc1ccc(-n2cnc3cc(-c4cc[nH]c4)ccc32)cc1 [Example 57] | ≥ 200%
8 | CS(=O)(=O)N1CC=C(c2ccc3c(c2)ncn3-c2ccc(OCCO)cc2)CC1 [Example 61] | ≥ 200%
9 | O=C(c1ccc(-c2ccn3c(N4CCC(OCCOC5CCOCC5)CC4)cnc3c2)cc1)N1CCOCC1 [Example 17, 7-[4-(Morpholin-4-ylcarbonyl)phenyl]-3-{4-[2-(tetrahydro-2H-pyran-4-yloxy)ethoxy]piperidin-1-yl}imidazo[1,2-a]pyridine] | ≥ 200%
10 | O=C(c1ccc(-c2ccc3c(-c4ccc(OCCO)cc4)cnn3c2)nc1)N1CCOCC1 [Example 146] | ≥ 200%
11 | Cn1cc(-c2ccc3c(c2)ncn3-c2ccc(OCCO)cc2)cn1 [Example 63] | ≥ 200%
12 | CC(C)(C)OC(=O)NCCOc1ccc(-n2cnc3ccccc32)cc1 [Example 99] | ≥ 200%
13 | NC(=O)c1ccc(-c2ccc3c(c2)ncn3-c2ccc(OCCO)cc2)cc1 [Example 15, 4-{1-[4-(2-Hydroxyethoxy)phenyl]-1H-benzimidazol-5-yl}benzamide dihydrochloride] | ≥ 200%
14 | CC(=O)N1CC=C(c2ccn3c(N4CCC(OCCOC5CCOCC5)CC4)cnc3c2)CC1 [Example 77] | ≥ 200%
15 | OCCNc1ccc(-c2cnn3ccccc23)cc1 [Example 122] | ≥ 200%
16 | Fc1ccc2ncc(-c3ccc(OCCOC[C@H]4COCCO4)cc3)n2c1 [Example 87] | ≥ 200%
17 | c1cc(-c2ccc3ncc(-c4ccc(NCCOC5CCOCC5)cc4)n3c2)ccn1 [Example 142] | ≥ 200%
18 | c1ccn2c(-c3ccc(NCCOC4CCOCC4)cc3)cnc2c1 [Example 109] | ≥ 200%
19 | COc1ccn2ncc(-c3ccc(NCCO)cc3)c2c1 [Example 121] | ≥ 200%
20 | N#Cc1ccc2ncc(-c3ccc(OCCOC4COCC4O)cc3)n2c1 (centres unmarked) [Example 91] | ≥ 200%
21 | N#Cc1ccc2ncn(-c3ccc(OCCOC4COCC4O)cc3)c2c1 (centres unmarked) [Example 94] | ≥ 200%
22 | Clc1ccn2c(-c3ccc(OCCOC4CCOCC4)cc3)cnc2c1 [Example 78] | ≥ 200%

Row | SMILES | activity at 0.1 µg/mL
23 | OCCOC1CCN(c2cnc3cc(-c4ccncc4)ccn23)CC1 [Example 76] | ≥ 200%
24 | OCCOc1ccc(-c2cnc3ccccn23)cc1 [Example 115] | ≥ 200%
25 | N#Cc1ccc(-c2ccc3c(c2)ncn3-c2ccc(OCCO)cc2)cc1 [Example 51] | ≥ 200%
26 | c1cc(-c2ccc3ncc(-c4ccc(OCCOC5CCOCC5)cc4)n3c2)ccn1 [Example 141] | ≥ 200%
27 | Cn1cc(-c2ccc3ncc(-c4ccc(NCCOC5CCOCC5)cc4)n3c2)cn1 [Example 136] | ≥ 200%
28 | Cc1cc(-c2ccc3c(c2)ncn3-c2ccc(OCCO)cc2)ccn1 [Example 43] | ≥ 200%
29 | CS(=O)(=O)Nc1ccc(-c2ccc3c(c2)ncn3-c2ccc(OCCO)cc2)cc1 [Example 53] | ≥ 200%
30 | CC(=O)N1CC=C(c2ccn3c(N4CCC(OCCO)CC4)cnc3c2)CC1 [Example 10, 2-({1-[7-(1-Acetyl-1,2,3,6-tetrahydropyridin-4-yl)imidazo[1,2-a]pyridin-3-yl]piperidin-4-yl}oxy)ethanol hydrochloride] | ≥ 200%
31 | c1ccn2ncc(-c3ccc(NCCOC4CCOCC4)cc3)c2c1 [Example 143] | ≥ 200%
32 | c1ccc2c(c1)ncn2-c1ccc(OCCOC2CCOCC2)cc1 [Example 100] | ≥ 200%
33 | CCOc1ccc2c(-c3ccc(OCCO)cc3)cnn2c1 [Example 126] | ≥ 200%
34 | c1ccn2ncc(-c3ccc(OCCOC4CCOCC4)cc3)c2c1 [Example 147] | ≥ 200%
35 | OCCOc1ccc(-c2cnn3ccccc23)cc1 [Example 117] | ≥ 200%
36 | N#Cc1ccc2ncc(-c3ccc(OCCO)cc3)n2c1 [Example 69] | ≥ 200%
37 | N#Cc1ccc2ncc(-c3ccc(OCCOC[C@H]4COCCO4)cc3)n2c1 [Example 93] | ≥ 200%
38 | CC(=O)n1ccc(-c2ccc3c(c2)ncn3-c2ccc(OCCO)cc2)c1 [Example 62] | ≥ 200%
39 | OCCOc1ccc(-c2cnc3cc(N4CCOCC4)ccn23)cc1 [Example 70] | ≥ 200%
40 | O=C(c1ccc(-c2ccn3c(-c4ccc(OCCOC5CCOCC5)cc4)cnc3c2)cn1)N1CCOCC1 [Example 133] | ≥ 200%
41 | N#Cc1ccc2ncc(-c3ccc(OCCOC4CCOCC4)cc3)n2c1 [Example 148] | ≥ 200%
42 | Cn1cc(-c2ccn3c(N4CCC(OCCO)CC4)cnc3c2)cn1 [Example 105] | ≥ 200%
43 | c1cc(-c2ccc3c(-c4ccc(OCCOC5CCOCC5)cc4)cnn3c2)ccn1 [Example 127] | ≥ 200%
44 | c1cc(-c2ccc3c(c2)ncn3-c2ccc(OCCOC3CCOCC3)cc2)ccn1 [Example 44] | ≥ 200%

Row | SMILES | activity at 0.1 µg/mL
45 | O=C(c1ccc(-c2ccn3c(-c4ccc(NCCOC5CCOCC5)cc4)cnc3c2)nc1)N1CCOCC1 [Example 132] | ≥ 200%
46 | Clc1ccc2ncc(-c3ccc(NCCOC4CCOCC4)cc3)n2c1 [Example 135] | ≥ 200%
47 | OCCOc1ccc(-n2cnc3cc(-c4ccccn4)ccc32)cc1 [Example 128] | ≥ 200%
48 | Fc1ccc2ncc(-c3ccc(OCCOC[C@@H]4COCCO4)cc3)n2c1 [Example 88] | ≥ 200%
49 | Cn1cc(-c2ccn3c(-c4ccc(OCCO)cc4)cnc3c2)cn1 [Example 65] | ≥ 200%
50 | N#Cc1ccc2ncn(-c3ccc(OCCOC4CCOCC4)cc3)c2c1 [Example 24, 1-{4-[2-(Tetrahydro-2H-pyran-4-yloxy)ethoxy]phenyl}-1H-benzimidazole-6-carbonitrile hydrochloride] | ≥ 200%
51 | c1ccc2c(c1)ncn2-c1ccc(NCCOC2CCOCC2)cc1 [Example 101] | ≥ 200%
52 | Cc1ccc2ncc(-c3ccc(OCCOC4CCOCC4)cc3)n2c1 [Example 145] | ≥ 200%
53 | OCCOc1ccc(-n2cnc3cc(-c4cncnc4)ccc32)cc1 [Example 38] | ≥ 200%
54 | COC1COCC1OCCOc1ccc(-c2cnc3ccc(C#N)cn23)cc1 (centres unmarked) [Example 114] | ≥ 200%
55 | O=C(O)c1ccc(-c2ccc3c(c2)ncn3-c2ccc(OCCO)cc2)cc1 [Example 13, 4-{1-[4-(2-Hydroxyethoxy)phenyl]-1H-benzimidazol-5-yl}benzoic acid] | ≥ 200%
56 | OCCNc1ccc(-n2cnc3cc(Cl)c(Cl)cc32)cc1 [Example 26] | ≥ 200%
57 | OCCOc1ccc(-n2cnc3cc(-c4cccnc4)ccc32)cc1 [Example 42] | ≥ 200%
58 | COc1ccn2c(-c3ccc(NCCO)cc3)cnc2c1 [Example 119] | ≥ 200%
59 | Fc1ccc2ncn(-c3ccc(OCCOC4CCOCC4)cc3)c2c1 [Example 48] | ≥ 200%
60 | Fc1ccc2ncc(-c3ccc(OCCOCC4CCOCC4)cc3)n2c1 [Example 80] | ≥ 200%
61 | COc1ccc2ncc(-c3ccc(OCCO)cc3)n2c1 [Example 124] | ≥ 200%
62 | O=C(C1CC1)N1CCC(OCCNc2ccc(-c3cnc4ccccn34)cc2)CC1 [Example 137] | ≥ 200%
63 | c1cc(-n2cnc3cc4c(cc32)OCCO4)ccc1OCCOC1CCOCC1 [Example 49] | ≥ 200%
64 | COc1cc2ncn(-c3ccc(NCCO)cc3)c2cc1OC [Example 28] | ≥ 200%
65 | c1ccn2c(N3CCC(OCCOC4CCOCC4)CC3)cnc2c1 [Example 79] | ≥ 200%
